pIC50: −log10 of the molar value. Where “and” joins values, the source holds several entries; their conditions need not be identical. Identical values can stand only once. Marks after values point to notes of the source that are not given here.
Assays:
[1] = Chemical stability in aqueous solution; assay type: physicochemical; conditions: PBS buffer pH 7.4 with 0.2% Triton X-100; 60 min, 37 °C
[2] = Metabolic stability in rat liver S9 fraction; assay type: in vitro ADME; conditions: 30 min incubation in the presence of NADPH
[3] = Metabolic stability in porcine liver S9 fraction; assay type: in vitro ADME; conditions: 30 min; for stability porcine liver S9 fractions (percent of parent remaining): 37 °C, no NADPH added; for stability in the absence of BNNP (percent of parent remaining) / stability in the presence of BNNP (percent of parent remaining): porcine liver homogenate; for stability in the presence of BNNP (percent of parent remaining): carboxylesterase 1 inhibitor BNPP 1 mM
[4] = Metabolic stability in porcine blood plasma; assay type: in vitro ADME; conditions: for metabolic stability porcine plasma (percent of parent remaining): Table 1, 30 min incubation, n = 3; for stability porcine blood plasma (percent of parent remaining): Table 3, 30 min, 37 °C, n = 3 unless otherwise stated
porcine albumin [5] = biological target: T1, porcine albumin (Sus scrofa, UniProt P08835); assay: Stability in porcine albumin solution; assay type: in vitro ADME; conditions: porcine albumin 17.5 mg/mL in PBS; 30 min, 37 °C
T1 sequence (P08835 25-607): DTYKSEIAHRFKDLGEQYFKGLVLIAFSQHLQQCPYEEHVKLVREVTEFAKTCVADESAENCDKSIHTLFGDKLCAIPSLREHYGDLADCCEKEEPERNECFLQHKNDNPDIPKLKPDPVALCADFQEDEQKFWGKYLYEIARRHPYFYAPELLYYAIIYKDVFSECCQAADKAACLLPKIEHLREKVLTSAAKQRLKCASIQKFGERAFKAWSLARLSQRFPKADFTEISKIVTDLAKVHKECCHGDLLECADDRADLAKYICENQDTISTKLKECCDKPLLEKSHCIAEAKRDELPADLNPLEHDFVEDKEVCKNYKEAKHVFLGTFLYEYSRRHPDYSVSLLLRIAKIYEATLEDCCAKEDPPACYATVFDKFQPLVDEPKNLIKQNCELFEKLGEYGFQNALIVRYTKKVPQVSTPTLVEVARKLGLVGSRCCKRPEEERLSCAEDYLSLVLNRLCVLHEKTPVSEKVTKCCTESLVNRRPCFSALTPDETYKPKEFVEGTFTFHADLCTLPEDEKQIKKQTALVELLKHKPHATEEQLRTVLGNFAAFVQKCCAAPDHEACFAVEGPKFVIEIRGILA

FAAH = biological target: T2, FAAH (Rattus norvegicus, UniProt P97612); assay: Inhibition of fatty acid amide hydrolase; assay type: biochemical
T2 sequence (P97612 1-579): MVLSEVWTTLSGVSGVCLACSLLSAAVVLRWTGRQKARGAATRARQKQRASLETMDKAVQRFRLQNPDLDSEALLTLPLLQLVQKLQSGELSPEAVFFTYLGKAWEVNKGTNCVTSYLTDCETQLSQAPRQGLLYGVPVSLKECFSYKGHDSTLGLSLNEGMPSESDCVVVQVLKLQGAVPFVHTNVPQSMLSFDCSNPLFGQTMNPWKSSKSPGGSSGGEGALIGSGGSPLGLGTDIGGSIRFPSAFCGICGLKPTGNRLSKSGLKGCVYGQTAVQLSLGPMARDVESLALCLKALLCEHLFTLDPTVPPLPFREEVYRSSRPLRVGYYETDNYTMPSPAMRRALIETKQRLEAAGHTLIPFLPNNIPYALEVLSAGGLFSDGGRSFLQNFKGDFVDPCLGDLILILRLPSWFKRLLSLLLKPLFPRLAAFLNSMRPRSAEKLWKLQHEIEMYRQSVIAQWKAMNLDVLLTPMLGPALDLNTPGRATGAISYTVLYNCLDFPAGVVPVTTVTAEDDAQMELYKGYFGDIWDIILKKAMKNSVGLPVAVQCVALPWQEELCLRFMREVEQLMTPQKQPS

human recombinant MAGL = biological target: T3, human recombinant MAGL (Homo sapiens, UniProt Q99685); assay: Inhibition of monoacylglycerol lipase; assay type: biochemical
T3 sequence (Q99685 1-303): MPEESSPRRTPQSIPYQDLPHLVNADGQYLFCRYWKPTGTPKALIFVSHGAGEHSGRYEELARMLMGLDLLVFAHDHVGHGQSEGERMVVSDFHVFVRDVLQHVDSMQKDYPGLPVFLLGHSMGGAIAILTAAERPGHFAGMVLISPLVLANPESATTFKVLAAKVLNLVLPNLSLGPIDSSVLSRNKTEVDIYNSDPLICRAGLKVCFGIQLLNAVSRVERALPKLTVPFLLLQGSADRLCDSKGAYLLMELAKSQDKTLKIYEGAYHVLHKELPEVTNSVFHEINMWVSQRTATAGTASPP

BuChE = BuChE (Equus caballus, UniProt P81908); assay: Inhibition of butyrylcholinesterase; assay type: biochemical, horse; conditions: read-out: BuChE inhibition at 10 μM
Sequence of BuChE (P81908 whole entry): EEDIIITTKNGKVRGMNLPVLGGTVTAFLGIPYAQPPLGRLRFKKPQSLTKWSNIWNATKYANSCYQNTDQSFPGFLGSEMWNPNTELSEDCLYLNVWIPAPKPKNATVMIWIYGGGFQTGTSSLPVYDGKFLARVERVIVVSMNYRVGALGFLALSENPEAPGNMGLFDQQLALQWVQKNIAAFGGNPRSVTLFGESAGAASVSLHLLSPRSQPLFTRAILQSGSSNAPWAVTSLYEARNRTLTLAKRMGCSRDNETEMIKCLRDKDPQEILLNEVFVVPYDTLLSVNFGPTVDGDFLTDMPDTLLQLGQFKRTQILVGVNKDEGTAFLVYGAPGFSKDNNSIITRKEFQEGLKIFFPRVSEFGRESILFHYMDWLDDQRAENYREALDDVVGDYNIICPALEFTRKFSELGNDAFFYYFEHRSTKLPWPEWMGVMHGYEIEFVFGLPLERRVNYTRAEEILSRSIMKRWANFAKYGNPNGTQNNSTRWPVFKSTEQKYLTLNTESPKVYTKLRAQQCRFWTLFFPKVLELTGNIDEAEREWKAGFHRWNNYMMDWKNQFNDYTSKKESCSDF

porcine albumin [6] = biological target: T1, porcine albumin; assay: Reaction with porcine albumin investigated by MS; conditions: 60 min, 37 °C; molar ratio compound/albumin 4:1

| SMILES | stability in PBS buffer (percent of parent remaining) [1] | metabolic stability rat liver S9 fraction (percent of parent remaining) [2] | stability porcine liver S9 fractions (percent of parent remaining) [3] | metabolic stability porcine plasma (percent of parent remaining) [4] | stability porcine blood plasma (percent of parent remaining) [4] | stability porcine albumin solution (percent of parent remaining) (porcine albumin [5]) | pIC50 (FAAH) | stability in the absence of BNNP (percent of parent remaining) [3] | stability in the presence of BNNP (percent of parent remaining) [3] | pIC50 (human recombinant MAGL) | factor by which MAGL activity exceeds reference inhibitor ABX-1431 (human recombinant MAGL; ratio of MAGL IC50 values) | inhibition at 10 µM (BuChE) | decrease in FAAH inhibitory activity compared with compound 14 (FAAH; ratio of FAAH IC50 values) | number of carbamate molecules bound to albumin in the most intense MS signal (porcine albumin [6]) |
| --- | --- | --- | --- | --- | --- | --- | --- | --- | --- | --- | --- | --- | --- | --- |
| O=C(OC(C(F)(F)F)C(F)(F)F)N1CCN(Cc2ccc(C(F)(F)F)cc2N2CCCC2)CC1 [ABX-1431 (2), reference compound] | 90 ± 5% | 92 ± 2% | 81 ± 3% | 95 ± 2% | 95 ± 2% | 87 ± 6% | – | – | – | – | – | – | – | – |
| O=C(NCCCCn1ccc2ccc(F)cc21)Oc1ccccc1 [Compound 11] | – | 75 ± 6% | – | 74 ± 2% | – | – | 6.33 | – | – | – | – | – | – | – |
| O=C(NCCCCCn1ccc2ccc(F)cc21)Oc1ccccc1 [Compound 14, Phenyl N-[5-(6-Fluoroindol-1-yl)pentyl]carbamate] | >95% | 66 ± 8% | – | 80 ± 6% | – | 93 ± 6^n = 6% | 7.54 | 76 ± 2% | 87 ± 9% | – | – | – | – | – |
| O=C(NCCCCCCn1ccc2ccc(F)cc21)Oc1ccccc1 [Compound 17] | – | 73 ± 2% | – | 55 ± 2% | – | – | 7.07 | – | – | – | – | – | – | – |
| O=C(NCCCCCCCn1ccc2ccc(F)cc21)Oc1ccccc1 [Compound 21] | – | 74 ± 11% | – | 34 ± 5% | – | – | 7.08 | – | – | – | – | – | – | – |
| O=C(NCCCCCCCCn1ccc2ccc(F)cc21)Oc1ccccc1 [Compound 25, Phenyl N-[8-(6-Fluoroindol-1-yl)octyl]carbamate] | – | 74 ± 5% | – | 65 ± 2% | – | – | 6.89 | – | – | – | – | – | – | – |
| O=C(NCCCCCn1ccc2ccc(F)cc21)Oc1ccccc1C(=O)O [Compound 37, 2-({[5-(6-Fluoroindol-1-yl)pentyl]carbamoyl}oxy)benzoic Acid] | 73 ± 6% | – | 77 ± 3% | – | 28 ± 4% | 74 ± 2% | 7.42 | – | – | 7.42 | 15 | – | – | – |
| O=C(O)Cc1ccc(OC(=O)NCCCCCn2ccc3ccc(F)cc32)cc1 [Compound 39, 2-[4-({[5-(6-Fluoroindol-1-yl)pentyl]carbamoyl}oxy)phenyl]acetic Acid] | >95% | – | 85 ± 3% | – | 88 ± 4% | >95% | 7.85 | – | – | – | – | 38% | – | – |
| O=C(O)Cc1ccccc1OC(=O)NCCCCCn1ccc2ccc(F)cc21 [Compound 43] | >95% | – | 82 ± 5% | – | 89 ± 1% | 89 ± 3% | 5.38 | – | – | – | – | 34% | more than 100 fold | – |
| O=C(NCCCCCn1ccc2ccc(F)cc21)Oc1cccnc1 [Compound 44] | 60 ± 2% | – | 53 ± 7% | – | <5% | 27 ± 3% | 8.70 | – | – | 6.77 | – | – | – | – |
| Cc1ncccc1OC(=O)NCCCCCn1ccc2ccc(F)cc21 [Compound 45] | 75 ± 4% | – | 65 ± 9% | – | 23 ± 6% | 70 ± 8% | 8.00 | – | – | 6.85 | – | – | – | – |
| Cc1ccncc1OC(=O)NCCCCCn1ccc2ccc(F)cc21 [Compound 46, 4-Methylpyridin-3-yl N-[5-(6-fluoroindol-1-yl)pentyl]carbamate] | 74 ± 4% | – | 56 ± 8% | – | 8 ± 2% | 68% and 68 ± 6% | 8.52 | 56 ± 8% | 76 ± 5% | 6.82 | – | – | – | dual |
| Cc1cncc(OC(=O)NCCCCCn2ccc3ccc(F)cc32)c1 [Compound 47] | 72 ± 4% | – | 57 ± 5% | – | <5% | 37% and 37 ± 4% | 8.70 | – | – | 6.82 | – | – | – | three |
| Cc1ccc(OC(=O)NCCCCCn2ccc3ccc(F)cc32)cn1 [Compound 48] | 82 ± 6% | – | 51 ± 9% | – | <5% | 62 ± 4% | 8.40 | – | – | 6.51 | – | – | – | – |
| NC(=O)c1cccc(-c2cccc(OC(=O)NC3CCCCC3)c2)c1 [URB597 (1), reference compound] | >95% | – | 80 ± 4% | – | – | 95 ± 7% | – | – | – | – | – | 35% | – | – |
| CNC(=O)Oc1ccc2c(c1)[C@]1(C)CCN(C)[C@@H]1N2C [physostigmine, reference compound] | >95% | 76 ± 7% | 57 ± 4% | >95% | >95% | >95% | – | – | – | – | – | – | – | – |

From paper PMC8158844 (ACS Omega, 2021)
